Source: US20120165325A1, “Stable forms of N-(2,6-Dimethyl-4-morpholin-4-yl-phenyl)-3,3-dimethyl-butyramide” (H. Lundbeck A/S, priority 2009, published 2012)

Legend:
DA neurons in the VTA = assay: Electrophysiology: spontaneous DA cell firing in the VTA of anaesthetised rats; format: in vivo, rat; conditions: mean ± SEM
Description: Subjects. Male Wistar rats (Harlan, The Netherlands) weighing 270-340 g were used. The animals were housed under a 12-hr light/dark cycle under controlled conditions for regular in-door temperature (21±2° C.) and humidity (55±5%) with food and tap water available ad libitum.
Experimental procedure. The rats were anaesthetised with an intraperitoneal injection of chloral hydrate (400 mg/kg). A femoral vein catheter was then inserted for supplementary anaesthetic injections (100 mg/kg) and drug administration. Animals were then mounted in a stereotaxic frame, the skull was exposed, and a hole (0.5×0.5 cm) was drilled above the ventral tegmental area. Extracellular single-cell recordings were performed using electrodes pulled from glass capillaries and filled with 2% Pontamine Sky Blue in 2 M NaCl. The tip of the electrode was broken under microscopic control, yielding an impedance of 2.0-8.0 MΩ a 135 Hz. The electrode was then lowered into the brain, using a hydraulic microdrive, aimed at the following coordinates: 5.5-5.0 mm posterior to Bregma; 0.5-0.9 mm lateral to the midline. Extracellular action potentials were amplified, discriminated and monitored on an oscilloscope and an audiomonitor. Discriminated spikes were collected and analysed using Spike 2 software (Cambridge Electronic Design Ltd., Cambridge, UK) on a PC-based system connected to a CED 1401 interface unit (Cambridge Electronic Design Ltd.). Presumed dopaminergic neurons were typically found 7.0-8.5 mm beneath the brain surface and were characterised by (1) a slow and irregular firing pattern (0.5-10 Hz), and (2) triphasic action potentials with a predominant positive component, a negative component followed by a minor positive component, with an overall duration >2.5 ms (Bunney et al. 1973, J. Pharmacol. Exp. They., 185, 560-571.).
Administration of compounds. Once a stable basal firing rate was obtained, cumulated doses of N-(2,6-Dimethyl-4-morpholin-4-yl-phenyl)-3,3-dimethyl-butyramide ([…]; volume range 0.12-1.0 ml/kg) were administered i.v., each injection being separated by at least 3 min. These i.v. doses match the s.c. dose range of 0-10 mg/kg.
Statistical analysis. Drug effects were assessed by statistical comparison of the mean firing rate calculated from the 2-3 min period immediately before the first drug administration (baseline) to the mean firing rate calculated from at least 60 s at the maximal drug effect. Data were analysed statistically by a one-way ANOVA followed by Student-Newman-Keuls posthoc test. A p-value less than 0.05 was considered significant.

Male Wistar rats = assay: Conditioned avoidance response; format: in vivo, rat; conditions: for % inhibition of avoidance (Std. dev.) Relative to baseline: rats
Description: Subjects. Male Wistar rats (Taconic, Denmark) weighing 150 g at the beginning of the study were used. The rats were housed in pairs and maintained on a 12 h light/dark cycle (lights on 06:00). The animals were fed once daily (approx. 6 pellets/rat) in order to keep the rats at 80% of their free-feeding weight. Water was available ad libitum. Temperature (21±1° C.) and relative humidity (55±5%) were automatically controlled.
Experimental procedure. Conditioned avoidance testing was conducted using four automated shuttle-boxes (ENV-010M, MED-Associates) each placed in a sound-attenuated chamber. Each box was divided into two compartments by a partition with an opening. The position of the animal and crossings from one compartment to the other were detected by two photocells placed on either side of the dividing wall. Upon presentation of the conditioned stimuli (CS), tone and light, the animals have 10 s to cross to the other compartment of the shuttle-box in order to turn the CS off (end the trial) and avoid the appearance of the unconditioned stimulus (UCS). If the rat remained in the same compartment for more than 10 s, the UCS is presented as 0.5 mA scrambled foot-shocks until escape was performed or 10 s in maximal duration. The following behavioural variables were evaluated: avoidance (response to CS within 10 s); escape (reponse to CS+UCS); escape failures (failure to respond); intertrial crosses and locomotor activity. The rats were habituated to the shuttle-box 3 min before each test session. During training each test session consists of 30 trials with intertrial intervals varying randomly between 20 s and 30 s. Training was carried until the rats display an avoidance of 80% or more, on 3 consecutive days. […]
Statistical analyses. The effects of compounds on avoidance and escape failure behaviours were statistically evaluated by means of a two-way repeated measures ANOVA followed by post hoc comparisons (Student-Newman-Keuls Method) when appropriate. […]

Male NMRI mice = assay: Forced swim test; format: in vivo, mouse; conditions: 30 min before test, last 3 min of 6 min swim, vehicle = 100
Description: Subjects. Male NMRI mice (Charles River) weighing 23-25 g were used. The mice were kept 8 mice pr cage in a 12-hr light/dark cycle under controlled conditions for regular in-door temperature (21±2° C.) and humidity (55±5%) with food and tap water available ad libitum. 8 mice were used pr experimental group.
Experimental procedure. The mice were placed in 2000 ml beaker containing 1200 ml of tempered water (25° C.) and left to swim for 6 min. The performance of the mice was video recorded, digitalized and analysed by means of a digital analysis system (Bioobserve). The time spent immobile for the last 3 min. of the test session was quantified for each mouse.
Treatment. 30 min. before the test, mice were treated s.c. with N-(2,6-dimethyl-4-morpholin-4-yl-phenyl)-3,3-dimethyl-butyramide or vehicle (10-%-2-OH-propyl-cyclodextrin, 10 ml/kg). In addition as positive control, imipramine-HCl (40 mg/kg) and a saline control (10 ml/kg) was included.
Analyses. The time spent immobile was statistically compared across the experimental groups against the relevant control group by means of one-way analysis of variance. A post-hoc test (Student-Newman-Keuls) was employed when appropriate. P-levels <0.05 were considered significant.

With `Cc1cc(N2CCOCC2)cc(C)c1NC(=O)CC(C)(C)C` [N-(2,6-dimethyl-4-morpholin-4-yl-phenyl)-3,3-dimethyl-butyramide] the “Spontaneous DA cell firing rate as a percentage of baseline firing rate” value (DA neurons in the VTA; cumulated dose 0.03 mg/kg i.v.) was 89.8 ± 4.5 (5) percentage of baseline firing rate, the “Spontaneous DA cell firing rate as a percentage of baseline firing rate” value (DA neurons in the VTA; cumulated dose 0.1 mg/kg i.v.) was 81.0 ± 4.0 (5) percentage of baseline firing rate and the “Spontaneous DA cell firing rate as a percentage of baseline firing rate” value (DA neurons in the VTA; cumulated dose 0.25 mg/kg i.v.) was 74.1 ± 6.3 (4) percentage of baseline firing rate. The “Spontaneous DA cell firing rate as a percentage of baseline firing rate” value (DA neurons in the VTA; cumulated dose 0.5 mg/kg i.v.) was 68.1 ± 6.0 (4) percentage of baseline firing rate, the “Spontaneous DA cell firing rate as a percentage of baseline firing rate” value (DA neurons in the VTA; cumulated dose 1.0 mg/kg i.v.) was 57.1 ± 7.9 (3) percentage of baseline firing rate and the “% inhibition of avoidance (Std. dev.) Relative to baseline” value (Male Wistar rats; 2.5 mg/kg s.c. 30 min before the test) was 1 (14) %. The % inhibition of avoidance (Std. dev.) Relative to baseline (Male Wistar rats; 5 mg/kg s.c. 30 min before the test) was 71%, the “Escape failures (effect on motor performance)” value (Male Wistar rats; 2.5 and 5 mg/kg s.c., data not shown) was “None of the tested doses caused any incidences of escape failures” and the “Immobility in % (±S.D.)” value (Male NMRI mice; dose 1.3 mg/kg) was 102%. For the same compound, the “Immobility in % (±S.D.)” value (Male NMRI mice; dose 2.5 mg/kg) was 96.7% and the “Immobility in % (±S.D.)” value (Male NMRI mice; dose 5.0 mg/kg) was 82.3%.
